The subject of data set [1] is M. incognita. Kind of data set: Juvenile (J2) mortality, laboratory test in sterile water. It is filed as in vivo. As to conditions: all concentrations (0.025%, 0.05%, 0.1%), in less than 24 h. An excerpt: (§1) The aim of the protocol was to evaluate the nematicidal efficacy of the formulation and of the active ingredients, cinnamic aldehyde and terpene alcohol, separately. For this trial M. incognita and M. javanica nematodes were used.
(§2) • 1. Untreated control specimen: Eggs or juvenile nematodes in sterile water. • 2. Eggs or juveniles with 0.025% of the formulation in sterile water. • 3. Eggs or juveniles with 0.05% of the formulation in sterile water. • 4. Eggs or juveniles with 0.1% of the formulation in sterile water. • 5. Eggs or juveniles with 0.025% of terpene alcohol in sterile water plus innocuous solvent. • 6. Eggs or juveniles with 0.05% of terpene alcohol in sterile water plus innocuous solvent. • 7. Eggs or juveniles with 0.1% of terpene alcohol in sterile water plus innocuous solvent. • 8. Eggs or juveniles with 0.025% of cinnamic aldehyde in sterile water plus innocuous solvent. • 9. Eggs or juveniles with 0.05% of cinnamic aldehyde in sterile water plus innocuous solvent. • 10. Eggs or juveniles with 0.1% of cinnamic aldehyde in sterile water plus innocuous solvent. Results:
(§3) The treatments with juveniles hatched at 0 h, 24 h, 48 h and 72 h. The number of hatched eggs was determined approximately every 72 h for 3-4 weeks. […]

Data set [2] relates to M. incognita. As to the kind of experiment: Egg hatching, laboratory test in sterile water. It is filed as in vivo. To be noted: M. incognita eggs; 0.025%, 0.05%, 0.1%; counts about every 72 h for 3-4 weeks.
Excerpt: as §1, §2, §3

The text below walks through data of patent US12369578B2, “Use of a nematicide composition” (DESARROLLO AGRICOLA Y MINERO, S.A., priority 2019, dated 2025).

Regarding `O=C/C=C/c1ccccc1` [cinnamic aldehyde, (2E)-3-phenylprop-2-enal], the “mortality of J2” value in data set [1] was determined as 100%. Further, in data set [2], the egg hatching result was “inhibited the hatching of juveniles”.
